Patent publication US6355799B1, “Substituted benzene compounds, process for their preparation, and herbicidal and defoliant compositions containing them” (ISK Americas Incorporated, priority 1997, dated 2002)

What was measured:
Format in all cases: in vivo
[1] = test system: redroot pigweed (Amaranthus retroflexus, AMARE); experiment: Pre-emerge test, greenhouse herbicide activity screening; details: pre-emerge, 14 days after application, rating scale 0-100
Procedure, shortened: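 Compounds in acetone were track-sprayed at 187 l/ha, 15–1000 g ai/ha, onto sandy loam pots. Pre-emerge seeds were sown one day before spraying, with surface watering afterwards. Post-emerge plants were at the 2–3 leaf stage and sprayed with 0.25% v/v non-ionic surfactant. Injury was rated 0–100 at 14 days.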

[2] = test system: barnyardgrass (Echinochloa crus-galli, ECHCG); experiment: as above; details: pre-emerge, 14 days after application, rating scale 0-100
Procedure, shortened: (§1)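 Rating: 0–100 visual injury, 14 DAA. Application: acetone, 187 l/ha, 15–1000 g ai/ha, flat-fan track sprayer with nozzle 40–45 cm above soil or canopy. Post-emerge runs used 0.25% v/v surfactant on 2–3 leaf plants.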

[3] = test system: green foxtail (Setaria viridis, SETVI); experiment: as above; details: pre-emerge, 14 days after application, rating scale 0-100
Procedure, shortened: as §1

[4] = test system: ivyleaf morningglory (Ipomoea hederacea, IPOHE); experiment: as above; details: pre-emerge, 14 days after application, rating scale 0-100
Procedure, shortened: as §1

[5] = test system: johnsongrass (Sorghum halepense, SORHA); experiment: as above; details: pre-emerge, 14 days after application, rating scale 0-100
Procedure, shortened: as §1

[6] = test system: lambsquarters (Chenopodium album, CHEAL); experiment: as above; details: pre-emerge, 14 days after application, rating scale 0-100
Procedure, shortened: as §1

[7] = test system: large crabgrass (Digitaria sanguinalis, DIGSA); experiment: as above; details: pre-emerge, 14 days after application, rating scale 0-100
Procedure, shortened: as §1

[8] = test system: sicklepod (Cassia obtusifolia, CASOB); experiment: as above; details: pre-emerge, 14 days after application, rating scale 0-100
Procedure, shortened: as §1

[9] = test system: velvetleaf (Abutilon theophrasti, ABUTH); experiment: as above; details: pre-emerge, 14 days after application, rating scale 0-100
Procedure, shortened: as §1

[10] = test system: field corn (Zea mays L., var. Dekalb 535, CORN); experiment: Pre-emerge test, crop safety; details: pre-emerge, 14 days after application, rating scale 0-100
Procedure, shortened: (§2)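 Compounds in acetone were track-sprayed at 15-1000 g ai/ha (187 l/ha) on sandy loam pots: pre-emerge one day after seeding, post-emerge at 2-3 leaf stage with 0.25% v/v non-ionic surfactant. Phytotoxicity was rated 14 days later on a 0 (no damage) to 100 (complete death) scale.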

[11] = test system: upland rice (Oryza sp., var. Tebonnet, RICE); experiment: Pre-emerge test, crop safety; details: pre-emerge, 14 days after application, rating scale 0-100
Procedure, shortened: as §2

[12] = test system: barnyardgrass (Echinochloa crus-galli, ECHCG); experiment: Post-emerge test, greenhouse herbicide activity screening; details: post-emerge, 14 days after application, rating scale 0-100
Procedure, shortened: (§3)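 Sandy loam pots; pre-emerge: sown 1 d pre-spray, surface-watered after, then bottom-watered. Post-emerge: sown 8–21 d before, 2–3 leaf stage, + 0.25% v/v NIS, bottom-watered. Acetone, 187 l/ha track spray, 15–1000 g ai/ha. 0–100 injury score, day 14.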

[13] = test system: green foxtail (Setaria viridis, SETVI); experiment: as above; details: post-emerge, 14 days after application, rating scale 0-100
Procedure, shortened: as §3

[14] = test system: ivyleaf morningglory (Ipomoea hederacea, IPOHE); experiment: as above; details: post-emerge, 14 days after application, rating scale 0-100
Procedure, shortened: as §3

[15] = test system: johnsongrass (Sorghum halepense, SORHA); experiment: as above; details: post-emerge, 14 days after application, rating scale 0-100
Procedure, shortened: as §3

[16] = test system: lambsquarters (Chenopodium album, CHEAL); experiment: as above; details: post-emerge, 14 days after application, rating scale 0-100
Procedure, shortened: as §3

[17] = test system: large crabgrass (Digitaria sanguinalis, DIGSA); experiment: as above; details: post-emerge, 14 days after application, rating scale 0-100
Procedure, shortened: as §3

[18] = test system: redroot pigweed (Amaranthus retroflexus, AMARE); experiment: as above; details: post-emerge, 14 days after application
Procedure, shortened: as §3

[19] = test system: sicklepod (Cassia obtusifolia, CASOB); experiment: as above; details: post-emerge, 14 days after application, rating scale 0-100
Procedure, shortened: as §3

[20] = test system: velvetleaf (Abutilon theophrasti, ABUTH); experiment: as above; details: post-emerge, 14 days after application, rating scale 0-100
Procedure, shortened: as §3

[21] = test system: field corn (Zea mays L., var. Dekalb 535, CORN); experiment: Post-emerge test, crop safety; details: post-emerge, 14 days after application, rating scale 0-100
Procedure, shortened: (§4)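 Plants grown in 10 cm pots of sandy loam mix received acetone-dissolved compounds through a moving flat-fan nozzle. Doses ranged from 15 to 1000 g ai/ha. Pre-emerge pots were seeded one day earlier, post-emerge pots 8–21 days earlier. Fourteen days on, each pot was graded 0–100 for damage.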

[22] = test system: upland rice (Oryza sp., var. Tebonnet, RICE); experiment: Post-emerge test, crop safety; details: post-emerge, 14 days after application, rating scale 0-100
Procedure, shortened: as §4

[23] = 63 g ai/ha, rating scale 0-100 (0 no damage, 100 complete death)
[24] = 250 g ai/ha, rating scale 0-100

## Cn1c(C(F)(F)F)cc(=O)n(-c2ccc(Cl)cc2/C=C/c2ccc3ccccc3c2)c1=O [14-59]
[1]; 63 g ai/ha
  phytotoxicity rating AMARE: 0
[1]; 250 g ai/ha
  phytotoxicity rating AMARE: 0
[2]; 63 g ai/ha
  phytotoxicity rating ECHCG: 0
[2]; 250 g ai/ha
  phytotoxicity rating ECHCG: 0
[3]; 63 g ai/ha
  phytotoxicity rating SETVI: 0
[3]; 250 g ai/ha
  phytotoxicity rating SETVI: 0
[4]; 63 g ai/ha
  phytotoxicity rating IPOHE: 0
[4]; 250 g ai/ha
  phytotoxicity rating IPOHE: 0
[5]; 63 g ai/ha
  phytotoxicity rating SORHA: 0
[5]; 250 g ai/ha
  phytotoxicity rating SORHA: 0
[6]; 63 g ai/ha
  phytotoxicity rating CHEAL: 40
[6]; 250 g ai/ha
  phytotoxicity rating CHEAL: 0
[7]; 63 g ai/ha
  phytotoxicity rating DIGSA: 0
[7]; 250 g ai/ha
  phytotoxicity rating DIGSA: 0
[8]; 63 g ai/ha
  phytotoxicity rating CASOB: 0
[8]; 250 g ai/ha
  phytotoxicity rating CASOB: 0
[9]; 63 g ai/ha
  phytotoxicity rating ABUTH: 0
[9]; 250 g ai/ha
  phytotoxicity rating ABUTH: 0
[10]; 63 g ai/ha
  phytotoxicity rating CORN: 0
[10]; 250 g ai/ha
  phytotoxicity rating CORN: 0
[11]; 63 g ai/ha
  phytotoxicity rating RICE: 0
[11]; 250 g ai/ha
  phytotoxicity rating RICE: 0
[12]; 63 g ai/ha
  Post-emerge Herbicidal Activity ECHCG (phytotoxicity rating): 0
[12]; 250 g ai/ha
  Post-emerge Herbicidal Activity ECHCG (phytotoxicity rating): 0
[13]; 63 g ai/ha
  Post-emerge Herbicidal Activity SETVI (phytotoxicity rating): 0
[13]; 250 g ai/ha
  Post-emerge Herbicidal Activity SETVI (phytotoxicity rating): 0
[14]; 63 g ai/ha
  Post-emerge Herbicidal Activity IPOHE (phytotoxicity rating): 30
[14]; 250 g ai/ha
  Post-emerge Herbicidal Activity IPOHE (phytotoxicity rating): 30
[15]; 63 g ai/ha
  Post-emerge Herbicidal Activity SORHA (phytotoxicity rating): 0
[15]; 250 g ai/ha
  Post-emerge Herbicidal Activity SORHA (phytotoxicity rating): 0
[16]; 63 g ai/ha
  Post-emerge Herbicidal Activity CHEAL (phytotoxicity rating): 10
[16]; 250 g ai/ha
  Post-emerge Herbicidal Activity CHEAL (phytotoxicity rating): 10
[17]; 63 g ai/ha
  Post-emerge Herbicidal Activity DIGSA (phytotoxicity rating): 0
[17]; 250 g ai/ha
  Post-emerge Herbicidal Activity DIGSA (phytotoxicity rating): 0
[18]; [23]
  Post-emerge Herbicidal Activity AMARE (phytotoxicity rating): 20
[18]; [24]
  Post-emerge Herbicidal Activity AMARE (phytotoxicity rating): 20
[19]; 63 g ai/ha
  Post-emerge Herbicidal Activity CASOB (phytotoxicity rating): 0
[19]; 250 g ai/ha
  Post-emerge Herbicidal Activity CASOB (phytotoxicity rating): 10
[20]; 63 g ai/ha
  Post-emerge Herbicidal Activity ABUTH (phytotoxicity rating): 50
[20]; 250 g ai/ha
  Post-emerge Herbicidal Activity ABUTH (phytotoxicity rating): 30
[21]; 63 g ai/ha
  Post-emerge Herbicidal Activity CORN (crop damage rating): 0
[21]; 250 g ai/ha
  Post-emerge Herbicidal Activity CORN (crop damage rating): 0
[22]; 63 g ai/ha
  Post-emerge Herbicidal Activity RICE (crop damage rating): 0
[22]; 250 g ai/ha
  Post-emerge Herbicidal Activity RICE (crop damage rating): 0

## CCOC(=O)C(Cl)Cc1cc(Cl)cc(F)c1-n1c(=O)cc(C(F)(F)F)n(C)c1=O (stereo not shown) [14-60]
[1]; 63 g ai/ha
  phytotoxicity rating AMARE: 100
[1]; 250 g ai/ha
  phytotoxicity rating AMARE: 100
[2]; 63 g ai/ha
  phytotoxicity rating ECHCG: 0
[2]; 250 g ai/ha
  phytotoxicity rating ECHCG: 20
[3]; 63 g ai/ha
  phytotoxicity rating SETVI: 10
[3]; 250 g ai/ha
  phytotoxicity rating SETVI: 60
[4]; 63 g ai/ha
  phytotoxicity rating IPOHE: 90
[4]; 250 g ai/ha
  phytotoxicity rating IPOHE: 100
[5]; 63 g ai/ha
  phytotoxicity rating SORHA: 0
[5]; 250 g ai/ha
  phytotoxicity rating SORHA: 10
[6]; 63 g ai/ha
  phytotoxicity rating CHEAL: 100
[6]; 250 g ai/ha
  phytotoxicity rating CHEAL: 100
[7]; 63 g ai/ha
  phytotoxicity rating DIGSA: 0
[7]; 250 g ai/ha
  phytotoxicity rating DIGSA: 30
[8]; 63 g ai/ha
  phytotoxicity rating CASOB: 0
[8]; 250 g ai/ha
  phytotoxicity rating CASOB: 0
[9]; 63 g ai/ha
  phytotoxicity rating ABUTH: 100
[9]; 250 g ai/ha
  phytotoxicity rating ABUTH: 100
[10]; 63 g ai/ha
  phytotoxicity rating CORN: 0
[10]; 250 g ai/ha
  phytotoxicity rating CORN: 0
[11]; 63 g ai/ha
  phytotoxicity rating RICE: 0
[11]; 250 g ai/ha
  phytotoxicity rating RICE: 20
[12]; 63 g ai/ha
  Post-emerge Herbicidal Activity ECHCG (phytotoxicity rating): 50
[12]; 250 g ai/ha
  Post-emerge Herbicidal Activity ECHCG (phytotoxicity rating): 75
[13]; 63 g ai/ha
  Post-emerge Herbicidal Activity SETVI (phytotoxicity rating): 20
[13]; 250 g ai/ha
  Post-emerge Herbicidal Activity SETVI (phytotoxicity rating): 30
[14]; 63 g ai/ha
  Post-emerge Herbicidal Activity IPOHE (phytotoxicity rating): 100
[14]; 250 g ai/ha
  Post-emerge Herbicidal Activity IPOHE (phytotoxicity rating): 100
[15]; 63 g ai/ha
  Post-emerge Herbicidal Activity SORHA (phytotoxicity rating): 20
[15]; 250 g ai/ha
  Post-emerge Herbicidal Activity SORHA (phytotoxicity rating): 50
[16]; 63 g ai/ha
  Post-emerge Herbicidal Activity CHEAL (phytotoxicity rating): 99
[16]; 250 g ai/ha
  Post-emerge Herbicidal Activity CHEAL (phytotoxicity rating): 100
[17]; 63 g ai/ha
  Post-emerge Herbicidal Activity DIGSA (phytotoxicity rating): 10
[17]; 250 g ai/ha
  Post-emerge Herbicidal Activity DIGSA (phytotoxicity rating): 60
[18]; [23]
  Post-emerge Herbicidal Activity AMARE (phytotoxicity rating): 70
[18]; [24]
  Post-emerge Herbicidal Activity AMARE (phytotoxicity rating): 100
[19]; 63 g ai/ha
  Post-emerge Herbicidal Activity CASOB (phytotoxicity rating): 40
[19]; 250 g ai/ha
  Post-emerge Herbicidal Activity CASOB (phytotoxicity rating): 70
[20]; 63 g ai/ha
  Post-emerge Herbicidal Activity ABUTH (phytotoxicity rating): 100
[20]; 250 g ai/ha
  Post-emerge Herbicidal Activity ABUTH (phytotoxicity rating): 100
[21]; 63 g ai/ha
  Post-emerge Herbicidal Activity CORN (crop damage rating): 0
[21]; 250 g ai/ha
  Post-emerge Herbicidal Activity CORN (crop damage rating): 60
[22]; 63 g ai/ha
  Post-emerge Herbicidal Activity RICE (crop damage rating): 10
[22]; 250 g ai/ha
  Post-emerge Herbicidal Activity RICE (crop damage rating): 20
